Assay results: the NIST ThermoML archive (doi:10.1021/acs.jced.7b00773)

Settings: Liquid

C=CCn1cc[n+](C)c1.O=S(=O)([N-]S(=O)(=O)C(F)(F)F)C(F)(F)F
Settings	mass density, 372.5 K [kg/m3]	mass density, 373.15 K [kg/m3]	mass density, 392.8 K [kg/m3]	mass density, 413.1 K [kg/m3]	mass density, 432.7 K [kg/m3]	viscosity, 373.15 K [mPa·s]
100 kPa, Concentric cylinders viscometry	–	–	–	–	–	5.498
100 kPa, Vibrating tube method	–	1427.3	–	–	–	–
10000 kPa, Bellows volumetry	–	–	1417.8	1399.4	1381.4	–
20000 kPa, Bellows volumetry	–	–	1427.3	1409.4	1392	–
30000 kPa, Bellows volumetry	–	–	1436.1	1418.9	1401.8	–
40000 kPa, Bellows volumetry	1461.6	–	1444.4	1427.7	1411.1	–
50000 kPa, Bellows volumetry	1469.1	–	1452.4	1436	1419.9	–
60000 kPa, Bellows volumetry	1476.1	–	1459.8	1443.8	1428	–
70000 kPa, Bellows volumetry	1482.9	–	1466.9	1451.3	1435.9	–
80000 kPa, Bellows volumetry	1489.5	–	1473.7	1458.4	1443.4	–
90000 kPa, Bellows volumetry	1495.6	–	1480.1	1465.2	1450.5	–
100000 kPa, Bellows volumetry	1501.6	–	1486.5	1471.7	1457.2	–
110000 kPa, Bellows volumetry	1507.5	–	1492.5	1478	1463.7	–
120000 kPa, Bellows volumetry	1513.3	–	1498.5	1484.2	1470.1	–
130000 kPa, Bellows volumetry	1518.7	–	1504.2	1490	1476.1	–
140000 kPa, Bellows volumetry	1524	–	1509.6	1495.8	1482	–
150000 kPa, Bellows volumetry	1529.2	–	1514.9	1501.3	1487.7	–
160000 kPa, Bellows volumetry	1534.2	–	1520.2	1506.6	1493.2	–
170000 kPa, Bellows volumetry	1539.1	–	1525.3	1511.8	1498.6	–
180000 kPa, Bellows volumetry	1544	–	1530.2	1516.9	1503.9	–
190000 kPa, Bellows volumetry	1548.6	–	1535.1	1521.8	1508.9	–
200000 kPa, Bellows volumetry	1553.4	–	1539.9	1526.8	1514	–
